Test results as given in the supplement of paper PMC12463676, “Small-molecule dissolution of stress granules by redox modulation benefits ALS models” (Nature Chemical Biology, 2025).

compound: NC(=O)CCCCC1CCSS1 [lipoamide]; assay: thermal stability z-score vs DMSO; higher = more thermally stabilized by treatment; details: HeLa; lipoamide concentration 100 µM; arsenate co-treatment: 1 mM arsenate 1 h
Procedure: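 Cellular thermal proteome profiling in HeLa cells. Cells were treated with 100 µM lipoamide for 1 h, with or without 1 mM arsenate for a further 1 h, then heated to ten temperatures (37-66.3 °C), and soluble protein was quantified by TMT mass spectrometry relative to 0.1% DMSO controls. The thermal stability score (sum of log2 fold changes minus the abundance score) was transformed to a z-score; mean of n = 3 experiments.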
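Also: each temperature applied for 3 min, abundance score taken as mean log2 fold change at the two lowest temperatures, z-score obtained by mean subtraction and division by SD.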

Sequence of UniProt O00186 (O00186 whole entry): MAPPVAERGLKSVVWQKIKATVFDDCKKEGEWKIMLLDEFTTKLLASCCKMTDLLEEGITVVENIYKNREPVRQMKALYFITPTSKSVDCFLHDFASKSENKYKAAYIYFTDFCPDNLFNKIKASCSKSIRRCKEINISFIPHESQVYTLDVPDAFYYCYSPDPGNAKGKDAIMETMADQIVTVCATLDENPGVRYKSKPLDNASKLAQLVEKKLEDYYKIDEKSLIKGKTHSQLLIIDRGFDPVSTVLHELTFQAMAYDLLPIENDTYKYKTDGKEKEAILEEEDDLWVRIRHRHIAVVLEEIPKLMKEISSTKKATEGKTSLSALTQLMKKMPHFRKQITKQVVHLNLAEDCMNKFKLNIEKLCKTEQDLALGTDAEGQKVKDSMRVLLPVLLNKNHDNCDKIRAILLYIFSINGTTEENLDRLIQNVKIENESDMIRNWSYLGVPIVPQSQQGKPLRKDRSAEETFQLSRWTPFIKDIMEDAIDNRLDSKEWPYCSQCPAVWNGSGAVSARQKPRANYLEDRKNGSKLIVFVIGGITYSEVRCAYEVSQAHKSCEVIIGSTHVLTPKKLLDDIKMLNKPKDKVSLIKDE
Sequence of UniProt Q9BTX7 (Q9BTX7 whole entry): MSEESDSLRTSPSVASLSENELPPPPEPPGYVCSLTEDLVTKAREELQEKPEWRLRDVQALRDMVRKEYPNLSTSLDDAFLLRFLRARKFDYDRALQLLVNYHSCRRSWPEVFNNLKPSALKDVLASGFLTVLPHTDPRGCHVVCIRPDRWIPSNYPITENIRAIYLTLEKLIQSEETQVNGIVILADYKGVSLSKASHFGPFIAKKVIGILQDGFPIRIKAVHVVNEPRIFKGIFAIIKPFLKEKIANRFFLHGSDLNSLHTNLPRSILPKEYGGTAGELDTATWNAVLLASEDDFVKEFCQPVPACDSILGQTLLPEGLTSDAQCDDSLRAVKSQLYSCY
Sequence of UniProt Q92539 (Q92539 whole entry): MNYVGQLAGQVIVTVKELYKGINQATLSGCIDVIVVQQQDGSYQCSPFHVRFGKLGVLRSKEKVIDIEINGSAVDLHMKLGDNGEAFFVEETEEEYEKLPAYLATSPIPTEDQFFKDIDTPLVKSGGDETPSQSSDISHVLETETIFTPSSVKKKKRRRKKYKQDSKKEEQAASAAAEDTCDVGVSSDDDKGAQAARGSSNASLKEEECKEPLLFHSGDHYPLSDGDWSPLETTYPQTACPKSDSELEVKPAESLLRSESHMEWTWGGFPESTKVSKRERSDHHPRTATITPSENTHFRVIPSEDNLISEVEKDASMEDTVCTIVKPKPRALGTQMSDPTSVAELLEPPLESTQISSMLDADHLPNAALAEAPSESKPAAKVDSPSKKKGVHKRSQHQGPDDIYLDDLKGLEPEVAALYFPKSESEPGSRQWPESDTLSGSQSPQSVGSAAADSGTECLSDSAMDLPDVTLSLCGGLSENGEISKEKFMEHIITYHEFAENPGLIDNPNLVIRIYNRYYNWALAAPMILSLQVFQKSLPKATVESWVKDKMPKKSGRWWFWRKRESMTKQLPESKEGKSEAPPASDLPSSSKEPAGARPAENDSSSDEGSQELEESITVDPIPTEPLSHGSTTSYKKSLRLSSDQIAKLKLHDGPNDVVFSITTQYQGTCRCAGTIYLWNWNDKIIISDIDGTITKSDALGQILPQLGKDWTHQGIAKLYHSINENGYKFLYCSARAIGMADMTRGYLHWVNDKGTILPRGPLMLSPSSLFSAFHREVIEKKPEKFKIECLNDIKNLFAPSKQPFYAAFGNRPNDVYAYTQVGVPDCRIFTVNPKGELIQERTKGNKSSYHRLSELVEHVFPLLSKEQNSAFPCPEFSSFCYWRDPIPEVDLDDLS
Sequence of UniProt P53602 (P53602 whole entry): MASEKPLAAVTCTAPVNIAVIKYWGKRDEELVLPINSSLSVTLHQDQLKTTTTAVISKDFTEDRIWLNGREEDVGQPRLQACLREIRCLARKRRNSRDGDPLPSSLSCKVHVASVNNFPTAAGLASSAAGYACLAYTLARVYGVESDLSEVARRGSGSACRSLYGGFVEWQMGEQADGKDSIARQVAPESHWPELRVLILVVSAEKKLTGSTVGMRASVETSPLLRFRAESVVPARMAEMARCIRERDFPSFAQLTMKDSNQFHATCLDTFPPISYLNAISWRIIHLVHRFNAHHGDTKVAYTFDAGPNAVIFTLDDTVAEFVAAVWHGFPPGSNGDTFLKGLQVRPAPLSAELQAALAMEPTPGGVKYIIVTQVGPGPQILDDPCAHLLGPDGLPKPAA
Sequence of UniProt Q13200 (Q13200 whole entry): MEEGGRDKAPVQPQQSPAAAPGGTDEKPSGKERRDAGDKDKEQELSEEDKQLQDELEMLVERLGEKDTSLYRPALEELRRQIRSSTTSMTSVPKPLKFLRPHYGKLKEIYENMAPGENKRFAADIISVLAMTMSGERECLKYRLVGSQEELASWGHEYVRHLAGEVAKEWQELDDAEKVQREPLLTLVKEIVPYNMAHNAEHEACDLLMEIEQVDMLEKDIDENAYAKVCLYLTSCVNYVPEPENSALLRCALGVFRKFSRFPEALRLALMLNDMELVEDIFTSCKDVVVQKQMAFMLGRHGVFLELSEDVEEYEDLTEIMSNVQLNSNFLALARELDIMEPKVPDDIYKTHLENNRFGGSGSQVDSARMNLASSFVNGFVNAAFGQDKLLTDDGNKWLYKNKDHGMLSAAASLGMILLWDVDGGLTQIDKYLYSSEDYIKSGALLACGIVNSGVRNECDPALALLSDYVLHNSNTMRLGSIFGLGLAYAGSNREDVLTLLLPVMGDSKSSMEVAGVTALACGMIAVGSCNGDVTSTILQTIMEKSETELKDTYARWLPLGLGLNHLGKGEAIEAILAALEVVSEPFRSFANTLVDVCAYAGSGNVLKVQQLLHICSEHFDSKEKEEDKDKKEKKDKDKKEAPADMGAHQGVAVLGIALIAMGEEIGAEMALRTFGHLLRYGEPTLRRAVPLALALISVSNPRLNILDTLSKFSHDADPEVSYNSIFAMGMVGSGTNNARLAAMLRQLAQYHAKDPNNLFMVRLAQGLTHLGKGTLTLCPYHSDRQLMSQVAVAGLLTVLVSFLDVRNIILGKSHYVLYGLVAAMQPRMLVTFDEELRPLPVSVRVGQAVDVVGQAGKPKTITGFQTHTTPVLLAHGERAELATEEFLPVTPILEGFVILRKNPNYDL
Sequence of UniProt Q8IX03 (Q8IX03 whole entry): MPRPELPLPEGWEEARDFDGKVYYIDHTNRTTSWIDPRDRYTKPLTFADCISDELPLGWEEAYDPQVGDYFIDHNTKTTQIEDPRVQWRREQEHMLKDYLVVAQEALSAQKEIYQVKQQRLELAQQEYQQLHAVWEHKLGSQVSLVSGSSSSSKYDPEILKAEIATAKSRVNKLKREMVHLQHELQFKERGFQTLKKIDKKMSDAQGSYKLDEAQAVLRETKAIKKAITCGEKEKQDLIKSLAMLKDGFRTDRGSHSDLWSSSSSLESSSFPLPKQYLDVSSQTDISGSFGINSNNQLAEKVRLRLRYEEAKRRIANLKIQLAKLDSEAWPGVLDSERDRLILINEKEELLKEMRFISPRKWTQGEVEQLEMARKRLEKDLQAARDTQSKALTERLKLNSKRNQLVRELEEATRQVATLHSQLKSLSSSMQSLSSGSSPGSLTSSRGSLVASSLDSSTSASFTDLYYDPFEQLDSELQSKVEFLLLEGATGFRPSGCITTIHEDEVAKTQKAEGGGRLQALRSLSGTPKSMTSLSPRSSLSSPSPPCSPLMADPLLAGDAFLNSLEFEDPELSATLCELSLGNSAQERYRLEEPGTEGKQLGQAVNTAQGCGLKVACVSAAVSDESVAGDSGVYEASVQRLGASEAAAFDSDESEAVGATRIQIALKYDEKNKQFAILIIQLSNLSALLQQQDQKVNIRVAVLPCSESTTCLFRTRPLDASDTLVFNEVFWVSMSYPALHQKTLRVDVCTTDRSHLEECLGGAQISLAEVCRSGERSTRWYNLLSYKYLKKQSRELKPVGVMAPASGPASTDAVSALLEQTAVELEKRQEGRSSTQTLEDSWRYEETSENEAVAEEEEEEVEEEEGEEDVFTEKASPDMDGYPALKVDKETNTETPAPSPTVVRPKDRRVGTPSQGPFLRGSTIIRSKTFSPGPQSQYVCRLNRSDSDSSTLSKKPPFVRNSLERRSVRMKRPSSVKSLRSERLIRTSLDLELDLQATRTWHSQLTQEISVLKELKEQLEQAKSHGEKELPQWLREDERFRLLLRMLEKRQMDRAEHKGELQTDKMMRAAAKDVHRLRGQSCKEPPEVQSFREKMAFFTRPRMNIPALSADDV
Sequence of UniProt Q08623 (Q08623 whole entry): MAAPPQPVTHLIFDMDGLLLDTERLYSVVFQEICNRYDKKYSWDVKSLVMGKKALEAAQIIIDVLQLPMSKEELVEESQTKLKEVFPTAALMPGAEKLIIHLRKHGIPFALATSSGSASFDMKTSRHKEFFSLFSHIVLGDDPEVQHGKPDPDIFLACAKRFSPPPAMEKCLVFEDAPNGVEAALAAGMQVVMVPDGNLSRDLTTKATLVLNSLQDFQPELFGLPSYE
Sequence of UniProt O75955 (O75955 whole entry): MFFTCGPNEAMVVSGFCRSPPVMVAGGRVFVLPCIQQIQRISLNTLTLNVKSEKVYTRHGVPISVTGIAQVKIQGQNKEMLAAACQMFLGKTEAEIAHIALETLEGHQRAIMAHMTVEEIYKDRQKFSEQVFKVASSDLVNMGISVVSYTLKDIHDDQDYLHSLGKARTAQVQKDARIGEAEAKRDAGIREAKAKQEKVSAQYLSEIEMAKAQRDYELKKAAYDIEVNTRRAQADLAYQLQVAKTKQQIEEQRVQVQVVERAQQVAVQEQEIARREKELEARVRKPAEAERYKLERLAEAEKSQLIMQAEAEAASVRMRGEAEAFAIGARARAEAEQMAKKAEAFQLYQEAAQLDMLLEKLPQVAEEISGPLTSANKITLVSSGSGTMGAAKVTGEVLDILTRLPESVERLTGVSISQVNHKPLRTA
Sequence of UniProt P84101 (P84101 whole entry): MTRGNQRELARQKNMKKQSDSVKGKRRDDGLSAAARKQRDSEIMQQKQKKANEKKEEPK

Row | Target | thermal stability z-score
1 | TRIM16 (UniProt O95361) | -0.0466
2 | WWC1 (UniProt Q8IX03) | -0.0147
3 | MVD (UniProt P53602) | 0.0441
4 | FLOT1 (UniProt O75955) | 1.38
5 | INTS4 (UniProt Q96HW7) | 1.08
6 | SERF2 (UniProt P84101) | 0.715
7 | ANKRD17 (UniProt O75179) | -0.568
8 | C11ORF54 (UniProt Q9H0W9) | 2.36
9 | CSTF2T (UniProt Q9H0L4) | 0.0672
10 | PSMD2 (UniProt Q13200) | -0.29
11 | MMTAG2 (UniProt Q9BU76) | 2.29
12 | TPP1 (UniProt O14773) | -0.299
13 | DMXL1 (UniProt Q9Y485) | 0.485
14 | ELP5 (UniProt Q8TE02) | -0.313
15 | IARS2 (UniProt Q9NSE4) | -0.232
16 | STK38 (UniProt Q15208) | -0.703
17 | ACIN1 (UniProt Q9UKV3) | 1.66
18 | SSSCA1 (UniProt O60232) | 1.33

Row | Target | thermal stability z-score
19 | POU2F1 (UniProt P14859) | -0.0121
20 | TFRC (UniProt P02786) | 0.193
21 | PUDP (UniProt Q08623) | 0.292
22 | TRIM25 (UniProt Q14258) | -0.86
23 | PARP9 (UniProt Q8IXQ6) | -0.239
24 | KCTD9 (UniProt Q7L273) | 0.34
25 | HARS2 (UniProt P49590) | -0.108
26 | SNAPC1 (UniProt Q16533) | -0.175
27 | ESF1 (UniProt Q9H501) | 0.105
28 | SURF4 (UniProt O15260) | -0.416
29 | CHMP3 (UniProt Q9Y3E7) | 0.271
30 | STXBP3 (UniProt O00186) | 0.948
31 | TTPAL (UniProt Q9BTX7) | 0.0476
32 | GAB1 (UniProt Q13480) | -0.149
33 | SYNJ2BP (UniProt P57105) | 0.988
34 | RPS6KA1 (UniProt Q15418) | -0.0567
35 | TNFAIP8 (UniProt O95379) | 0.127
36 | LPIN2 (UniProt Q92539) | 0.528

same assay, conditions: HeLa; lipoamide concentration 100 µM; arsenate co-treatment: none

Row | Target | thermal stability z-score
37 | CALR (UniProt P27797) | -3.48
38 | MCM3 (UniProt P25205) | 0.412
39 | RPL22 (UniProt P35268) | -0.292
40 | SLC37A4 (UniProt O43826) | -0.205
41 | NCOR2 (UniProt Q9Y618) | 0.227
42 | TCF12 (UniProt Q99081) | -0.0813
43 | BIRC2 (UniProt Q13490) | -0.56
44 | RNF187 (UniProt Q5TA31) | -1.96
45 | C4BPB (UniProt P20851) | -5.39
46 | HSPA8 (UniProt P11142) | 0.357
47 | YWHAE (UniProt P62258) | 0.0341
48 | RAB24 (UniProt Q969Q5) | 0.12
49 | IRS2 (UniProt Q9Y4H2) | -0.112
50 | FHOD1 (UniProt Q9Y613) | -0.0798
51 | IVNS1ABP (UniProt Q9Y6Y0) | 0.743
52 | NME3 (UniProt Q13232) | 0.615
53 | ITM2B (UniProt Q9Y287) | -0.0896
54 | AZIN1 (UniProt O14977) | 0.806
55 | GAA (UniProt P10253) | 0.311
56 | UBE2R2 (UniProt Q712K3) | 0.536
57 | FCHSD2 (UniProt O94868) | -0.175
58 | GALNT2 (UniProt Q10471) | -1.16
59 | MTMR10 (UniProt Q9NXD2) | 0.0107
60 | HADH (UniProt Q16836) | 0.477

Row | Target | thermal stability z-score
61 | COPS5 (UniProt Q92905) | -0.0535
62 | XRCC4 (UniProt Q13426) | 1.89
63 | CCT4 (UniProt P50991) | -0.205
64 | GDPD3 (UniProt Q7L5L3) | -0.422
65 | KIAA1033 (UniProt Q2M389) | -0.193
66 | KEAP1 (UniProt Q14145) | 2.11
67 | UBE2E1 (UniProt P51965) | 0.441
68 | SMARCA4 (UniProt P51532) | 0.272
69 | ITGA1 (UniProt P56199) | 0.171
70 | TRIM3 (UniProt O75382) | 0.061
71 | PSMD8 (UniProt P48556) | 0.532
72 | TRIM16 (UniProt O95361) | -0.0815
73 | WWC1 (UniProt Q8IX03) | -0.0692
74 | MVD (UniProt P53602) | -0.0153
75 | FLOT1 (UniProt O75955) | 0.653
76 | INTS4 (UniProt Q96HW7) | 1.34
77 | SERF2 (UniProt P84101) | 0.165
78 | ANKRD17 (UniProt O75179) | -0.123
79 | C11ORF54 (UniProt Q9H0W9) | 3.02
80 | CSTF2T (UniProt Q9H0L4) | -0.0883
81 | PSMD2 (UniProt Q13200) | -0.343
82 | MMTAG2 (UniProt Q9BU76) | 0.684
83 | TPP1 (UniProt O14773) | -0.137
84 | DMXL1 (UniProt Q9Y485) | 0.00841

Row | Target | thermal stability z-score
85 | ELP5 (UniProt Q8TE02) | -0.364
86 | IARS2 (UniProt Q9NSE4) | 0.259
87 | STK38 (UniProt Q15208) | -0.424
88 | ACIN1 (UniProt Q9UKV3) | 0.763
89 | SSSCA1 (UniProt O60232) | 1.12
90 | POU2F1 (UniProt P14859) | -0.303
91 | TFRC (UniProt P02786) | 0.202
92 | PUDP (UniProt Q08623) | -0.0843
93 | TRIM25 (UniProt Q14258) | -0.867
94 | PARP9 (UniProt Q8IXQ6) | -0.1
95 | KCTD9 (UniProt Q7L273) | 0.375
96 | HARS2 (UniProt P49590) | -0.629
97 | SNAPC1 (UniProt Q16533) | -0.207
98 | ESF1 (UniProt Q9H501) | 0.129
99 | SURF4 (UniProt O15260) | -0.214
100 | CHMP3 (UniProt Q9Y3E7) | 0.481
101 | STXBP3 (UniProt O00186) | 0.942
102 | TTPAL (UniProt Q9BTX7) | 0.0717
103 | GAB1 (UniProt Q13480) | 0.0158
104 | SYNJ2BP (UniProt P57105) | 0.247
105 | RPS6KA1 (UniProt Q15418) | -0.413
106 | TNFAIP8 (UniProt O95379) | -0.421
107 | LPIN2 (UniProt Q92539) | 0.214
